What was measured:
[1] = system: C57BL/6N mice with angiotensin II-induced diastolic heart failure; assay: Echocardiography in therapeutic murine model (angiotensin II for eight weeks); assay type: in vivo; conditions: therapeutic: Bufalin 0.5 mg/kg i.p. every other day from week 2; week 8
Method: (§1) Diastolic heart failure (HF) was induced in C57BL/6N mice via implantation of angiotensin II filled minipumps (see Example 3). In difference to Example 3, C57BL/6N mice were infused with 3 mg/kg/day angiotensin II by subcutaneously implanted minipumps for eight weeks.
(§2) Next, Bufalin or Lycorine (dissolved in DMSO) or the solvent DMSO alone (as control) were injected intraperitoneally (i.p) every other day until the endpoint, starting two weeks after start of angiotensin II-infusion (see FIG. 11).
Diastolic HF was induced in C57BL/6 mice and Bufalin or Lycorine were injected as indicated in Example 5. Eight weeks after the operation, cardiac function of the mice was assessed echocardiographically (n=5-12 per group) by treating the mice with said compounds (Bufalin: 0.5 mg/kg, Lycorine 4.5 mg/kg).
A decrease of the Myocardial Performance Index (MPI) (see FIG. 12B) as well as a reduction of the isovolumetric relaxation time (IVRT) (see FIG. 12C) and an increase in E to A peak ratio (E/A) (the ratio of the early (E) to late (A) ventricular filling velocities as a marker of the function of the left ventricle of the heart) (see FIG. 12D) indicate improvement of both global (MPI) and diastolic (IVRT and E/A) function of the heart, in particular for Bufalin.

[2] = system: C57BL/6N mice with angiotensin II-induced diastolic heart failure; assay: Picrosirius-red collagen staining of heart sections, therapeutic model (eight weeks); assay type: in vivo; conditions: therapeutic: i.p. every other day from week 2 of angiotensin II; week 8
Method: as §1, §2
Additionally, eight weeks after the operation, histological sections of the hearts were stained for collagen using picrosirius-red (n=7-12 per group) after treatment with Bufalin or Lycorine.

[3] = system: C57BL/6N mice with angiotensin II-induced diastolic heart failure; assay: Hemodynamic measurement (MILLAR), therapeutic model; assay type: in vivo; conditions: therapeutic: Bufalin 0.5 mg/kg, Lycorine 4.5 mg/kg; week 8
Method: as §1, §2
Diastolic HF was induced in C57BL/6 mice and Bufalin or Lycorine were injected as indicated in Example 5. Eight weeks after the operation, hemodynamic measurements of the mice were assessed (n=6-7 per group) by treating the mice with said compounds (Bufalin: 0.5 mg/kg, Lycorine 4.5 mg/kg).

[4] = system: C57BL/6N mice with angiotensin II-induced diastolic heart failure; assay: Tissue Doppler Imaging, therapeutic model; assay type: in vivo; conditions: therapeutic: Bufalin 0.5 mg/kg; week 8; vs AngII solvent control
Method: as §1, §2
(§3) Diastolic HF was induced in C57BL/6 mice and Bufalin were injected as indicated in Example 5. Eight weeks after the operation, cardiac function of the mice was assessed echocardiographically (n=3-6 per group) by treating the mice with said compounds (Bufalin: 0.5 mg/kg)
Echocardiographic measurements were performed using Tissue Doppler Imaging (TDI), which refers to a medical ultrasound technology mainly used in Echocardiography that measures the velocity of the heart muscle or myocardium through the phases of one or more heartbeats by the Doppler effect (frequency shift) of the reflected ultrasound (see FIG. 14).

[5] = system: C57BL/6N mice with angiotensin II-induced diastolic heart failure; assay: 2-dimensional speckle-tracking strain echocardiography, therapeutic model; assay type: in vivo; conditions: therapeutic: Bufalin 0.5 mg/kg; week 8
Method: as §1, §2, §3
Additionally, myocardial deformation was assessed using strain imaging such as 2-dimensional speckle-tracking strain echocardiography. Global longitudinal strain (GLS), a measure for the deformation of the myocardium, which decreases when diastolic dysfunction is present, is depicted in FIG. 15.

[6] = system: miRNA expression of HCFs; assay: High-throughput miRNA sequencing in HCFs; assay type: cell-based, human; conditions: 1 μM, 24 h, vs DMSO
Method: HCFs were treated with 1 μM Bufalin for 24 h as indicated, total RNA was isolated and subjected to high-throughput miRNA sequencing profiling via deep sequencing, DMSO refers as a control. To perform a high-throughput miRNA sequencing the Illumine® TruSeq® Small RNA technology is used to prepare various RNA species which is known to the person skilled in the art. In view of said technology, advantages of the natural structure common to most known microRNA molecules are taken. Most mature miRNAs have a 5′-phosphate and a 3′-hydroxyl group as a result of the cellular pathway used to create them. Because of this, the Illumina adapters which are used are directly and specifically ligated to miRNAs. Thus, libraries for subsequent cluster generation are prepared, using total RNA as input. Further, adapter ligation, reverse transcription, PCR amplification, and pooled gel purification to generate a library product is applied as it is known to the skilled person in the art. […] Data represent pooled triplicates from 3 independent experiments. Representative experiment shown; the same experiment was performed with all the anti-fibrotic natural substances identified (see FIG. 16).

[7] = system: kidney and liver; assay: Kidney and liver histology (HE, PAS), angiotensin II model, fourteen days; assay type: in vivo, mice; conditions: Bufalin 0.5, Lycorine 4.5 mg/kg; fourteen days after the operation
Method: (§4) Again, HF was induced in mice (Example 3) and Bufalin (0.5 mg/kg) as well as Lycorine (4.5 mg/kg) were injected as indicated in Example 3. Fourteen days after the operation, kidneys and livers were subjected to histological assessment via Hematoxylin and Eosin (HE) and Periodic acid-Schiff (PAS) stain (n=2-4 per group) (see FIGS. 28A and B).

[8] = system: kidney and liver; assay: Kidney and liver histology (HE, PAS), therapeutic model, eight weeks; assay type: in vivo, mice; conditions: therapeutic approach; Bufalin 0.5, Lycorine 4.5 mg/kg; eight weeks after the operation
Method: as §4, with “HF” for “Again, HF”, “5)” for “3)”, “5. Eight weeks” for “3. Fourteen days”, “(n=4” for “(n=2-4”, “group).” for “group) (see FIGS. 28A and B).”

[9] = Myocardial and plasma concentrations, LC and QTOF-MS; assay type: in vivo, mice; conditions: 9 minutes after injection; Bufalin 0.5, Lycorine 4.5 mg/kg
Method: Plasma and hearts of C57BL/6N mice were harvested 9 minutes after injection with natural substances Bufalin (0.5 mg/kg) or Lycorine (4.5 mg/kg) (dissolved in DMSO). After extraction of the substances, Bufalin and Lycorine were quantified by liquid chromatography (LC) and quadrupole time-of-flight mass spectrometry (QTOF-MS) (see FIG. 30).

[10] = system: rat renal fibroblast cell line NRK49F; assay: Proliferation of rat renal fibroblast cell line NRK49F, BrdU-ELISA; assay type: cell-based; conditions: 24 h; for proliferation of renal fibroblasts (NRK49F): Lycorine 1, 5, 10 μM, Bufalin 0.1, 1, 10 μM
Method: Cells of the rat renal fibroblast cell line NRK49F and primary human pulmonary fibroblasts (HPFs) were treated with Lycorine (1 μM, 5 μM and 10 μM) or Bufalin (0.1 μM, 1 μM, 10 μM) for 24 h and proliferation of respective fibroblasts was measured by BrdU-ELISA (see FIG. 39).

| SMILES | E to A peak ratio [1] | Myocardial Performance Index (MPI) [1] | isovolumetric relaxation time (IVRT) [1] | collagen deposition in heart sections (picrosirius-stained areas) [2] | end-diastolic pressure-volume relationship (EDPVR) [3] | velocity of tissue motion in diastole (E′) [4] | ejection fraction (EF) [5] | global longitudinal strain (GLS) [5] | number of miRNAs downregulated in HCFs [6] | number of miRNAs upregulated in HCFs [6] | kidney and liver morphology (HE, PAS) [7] | kidney and liver morphology (HE, PAS) [8] | levels in the myocardium compared to the plasma [9] | proliferation of renal fibroblasts (NRK49F) [10] | most effective amount (renal fibroblasts) [10] |
| --- | --- | --- | --- | --- | --- | --- | --- | --- | --- | --- | --- | --- | --- | --- | --- |
| C[C@]12CC[C@H](O)C[C@H]1CC[C@@H]1[C@@H]2CC[C@]2(C)[C@@H](c3ccc(=O)oc3)CC[C@]12O [Bufalin] | increase | decrease | reduction | reduction of collagen deposition | significant reduction | recovers the velocity of tissue motion in diastole | remained comparable in all tested groups | significant reversal of the downshift | 33 | 14 | does not induce necrosis, inflammation or any morphological changes | does not induce necrosis, inflammation or any morphological changes | higher levels in (A) the myocardium as compared to (B) the plasma | significantly inhibits only proliferation of pulmonary fibroblasts |  |
| O[C@H]1[C@H]2c3cc4c(cc3CN3CCC(=C[C@@H]1O)[C@H]23)OCO4 [Lycorine] |  |  |  | reduction of collagen deposition | significant reduction |  |  |  |  |  | does not induce necrosis, inflammation or any morphological changes | does not induce necrosis, inflammation or any morphological changes | higher levels in (A) the myocardium as compared to (B) the plasma | significantly inhibits proliferation | 10 µM |
